In the test the test system is cotton leafworm, S. littoralis. As to the kind of experiment: Insecticidal bioassay screening (castor leaf dip), second and fourth instar larvae, laboratory strain. Format: in vivo. As to conditions: for Toxicity index %: 72 hrs, Diflubenzuron's LC50/compound's LC50 × 100; for LC50: Spodoptera littoralis, foliar. The protocol: Five concentrations (200, 100, 50, 25, 12.5 ppm) were designed for this synthetic compound and the reference Diflubenzuron compound as the dynamic ingredients based on mg/L via diluting the commercial formulation.
In this experiment, castor leaves are immersed in each of the previously prepared concentrations of the components for 10 seconds and then left to dry for 60 minutes. Larvae of the second and fourth instars of each checked strain are prepared with treated leaves in gauze-covered glass containers for 72 hrs. An untreated control is made in which leaves are dipped in triton x-100 and distilled water only. Then the preserved leaves were removed & fresh, untreated leaves were provided for 72 hours. Three replicates (10 larvae each) were checked for each concentration. Daily inspection was carried out for all treatments and mortality percentages were recorded 3 days (72 hours) after treatment. The average mortality percentage was corrected employing Abbott's formula. The corrected mortality rate for each of the previously synthesized compounds is statistically calculated according to Finney (1970). Through this rate, the corresponding concentration test lines (LDP lines) are assessed.

[1] abbreviates: 72 h, read-out: LC50 (mg/L) at 95%, 2nd instar larvae, after 72 hrs of treatment.
The mark [2] stands for this setting: 72 h, read-out: LC50 (mg/L) at 95%, 4th instar larvae, after 72 hrs of treatment.
[3] abbreviates: against Spodoptera littoralis under laboratory conditions, instar not stated.

In brackets after ≈: the same amount, converted by molar mass. Read-outs that look alike come from different tables or passages of the source.

`O=C(NC(=S)Nc1ncccn1)c1ccccc1` [Compound 3, N-(Pyrimidin-2-ylcarbamothioyl) benzamide]: the Toxicity index % reads like this: (2nd instar larvae) 16.7%; (4th instar larvae) 22.8%. Besides, the LC50 was about 631 mg/L (≈ 2440 µM) (72 h, 4th instars of larvae, after 72 hours of treatment); about 96.8 mg/L (≈ 375 µM) under setting [1]; 631 mg/L (≈ 2440 µM) under setting [2]; 96.8 mg/L (≈ 375 µM) under setting [3].
Regarding `O=C(NC(=O)c1c(F)cccc1F)Nc1ccc(Cl)cc1` [Diflubenzuron, reference compound], the Toxicity index % runs as follows: (2nd instar larvae) 100%; (4th instar larvae) 100%. Also, the LC50 is, setting by setting: under setting [1], 45.2 mg/L (≈ 145 µM); under setting [2], 144 mg/L (≈ 464 µM); under setting [3], 45.2 mg/L (≈ 145 µM).

(Values after patent US12041933B1, “N-(pyrimidin-2-ylcarbamothioyl) benzamide as an eco-friendly insecticidal agent against Spodoptera littoralis (BOISD.)” (KING FAISAL UNIVERSITY, priority 2023, dated 2024).)
